From patent US20250290117A1, “MOLECULAR PHENOTYPIC ANTIMICROBIAL SUSCEPTIBILITY TESTING” (priority 2024, published 2025)

Tests used:
Assay type in all cases: cell-based
Escherichia coli [1] = assay: Traditional culture-based antimicrobial susceptibility test
How it was run: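 E. coli isolates underwent conventional growth, isolation and exposure to antimicrobials, giving a culture-based susceptibility call for each agent.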

[2] = tested on: pathogens of clinical samples; assay: Molecular phenotypic antimicrobial susceptibility test of clinical samples, extraction DNA purification step prior to PCR (Table 6)
How it was run: (§1)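 Patient specimens in boric acid preservative were culture-incubated, diluted to 0.5 McFarland and exposed for 12-16 hours to antimicrobials in broth at their sensitivity breakpoint concentration(s), with a no-drug well for pathogen load. Growth was then measured by semi-quantitative PCR, either after DNA purification (e.g. magnetic beads) or directly after lysis-buffer treatment without extraction.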

Escherichia coli [3] = assay: Molecular phenotypic antimicrobial susceptibility test (extraction or DNA purification prior to PCR)
How it was run: as §1

[4] = tested on: pathogens of clinical samples; assay: Molecular phenotypic antimicrobial susceptibility test of clinical samples, direct PCR without a separate DNA purification step (Table 6)
How it was run: as §1

[5] = E. coli, clinical sample of r10-r24
[6] = E. coli, clinical sample of r158-r172
[7] = K. aerogenes, clinical sample of r136-r150
[8] = K. pneumoniae, clinical sample of r121-r135
[9] = M. morganii, clinical sample of r55-r69
[10] = M. morganii, clinical sample of r70-r84
[11] = P. mirabilis, clinical sample of r25-r39
[12] = P. mirabilis, clinical sample of r40-r54
[13] = S. aureus, clinical sample of r85-r92

## Trimethoprim/Sulfamethoxazole [TMP/SMX]
Escherichia coli [1]; E. coli isolate 1 (Table 3)
  Traditional Culture Result: Sensitive
Escherichia coli [1]; E. coli isolate 2 (Table 3)
  Traditional Culture Result: Sensitive
Escherichia coli [1]; E. coli isolate 3 (Table 3)
  Traditional Culture Result: Sensitive
Escherichia coli [1]; E. coli isolate 4 (Table 3)
  Traditional Culture Result: Resistant
Escherichia coli [1]; E. coli isolate 5 (Table 3)
  Traditional Culture Result: Sensitive
Escherichia coli [1]; E. coli isolate JJ1887
  Traditional Culture Result: Resistant
[2]; [5]
  Molecular Antibiotic Susceptibility Result: Sensitive (Antimicrobial wells with pathogen load detected below the control wells (typically >2 cycle thresholds later) may be reported as Sensitive)
[2]; E. coli, clinical sample of r10-r24, Ct Control Avg 18.112
  Ct: 28.072
[2]; [6]
  Molecular Antibiotic Susceptibility Result: Sensitive (Antimicrobial wells with pathogen load detected below the control wells (typically >2 cycle thresholds later) may be reported as Sensitive)
[2]; E. coli, clinical sample of r158-r172, Ct Control Avg 20.146
  Ct: 33.402
[2]; [7]
  Molecular Antibiotic Susceptibility Result: Sensitive (Antimicrobial wells with pathogen load detected below the control wells (typically >2 cycle thresholds later) may be reported as Sensitive)
[2]; K. aerogenes, clinical sample of r136-r150, Ct Control Avg 19.994
  Ct: 36.5
[2]; [8]
  Molecular Antibiotic Susceptibility Result: Sensitive (Antimicrobial wells with pathogen load detected below the control wells (typically >2 cycle thresholds later) may be reported as Sensitive)
[2]; K. pneumoniae, clinical sample of r121-r135, Ct Control Avg 24.272
  Ct: 34.918
[2]; [9]
  Molecular Antibiotic Susceptibility Result: Sensitive (Antimicrobial wells with pathogen load detected below the control wells (typically >2 cycle thresholds later) may be reported as Sensitive)
[2]; M. morganii, clinical sample of r55-r69, Ct Control Avg 28.86
  Ct: Undet
[2]; [10]
  Molecular Antibiotic Susceptibility Result: Sensitive (Antimicrobial wells with pathogen load detected below the control wells (typically >2 cycle thresholds later) may be reported as Sensitive)
[2]; M. morganii, clinical sample of r70-r84, Ct Control Avg 27.053
  Ct: 30.225
[2]; [11]
  Molecular Antibiotic Susceptibility Result: Sensitive (Antimicrobial wells with pathogen load detected below the control wells (typically >2 cycle thresholds later) may be reported as Sensitive)
[2]; P. mirabilis, clinical sample of r25-r39, Ct Control Avg 26.064
  Ct: 30.865
[2]; [12]
  Molecular Antibiotic Susceptibility Result: Sensitive (Antimicrobial wells with pathogen load detected below the control wells (typically >2 cycle thresholds later) may be reported as Sensitive)
[2]; P. mirabilis, clinical sample of r40-r54, Ct Control Avg 26.987
  Ct: 33.833
[2]; [13]
  Molecular Antibiotic Susceptibility Result: Sensitive (Antimicrobial wells with pathogen load detected below the control wells (typically >2 cycle thresholds later) may be reported as Sensitive)
[2]; S. aureus, clinical sample of r85-r92, Ct Control Avg 24.32
  Ct: 27.399
Escherichia coli [3]; E. coli isolate 1, Ct at control (average) 21.238
  Ct at Sensitive Breakpoint: 32.294
Escherichia coli [3]; E. coli isolate 1, at sensitive breakpoint
  Molecular Antimicrobial Susceptibility Result: Sensitive (Antimicrobial wells with pathogen load detected below the control wells (typically >2 cycle thresholds later) may be reported as Sensitive)
Escherichia coli [3]; E. coli isolate 2, Ct at control (average) 21.270
  Ct at Sensitive Breakpoint: 28.875
Escherichia coli [3]; E. coli isolate 2, at sensitive breakpoint
  Molecular Antimicrobial Susceptibility Result: Sensitive (Antimicrobial wells with pathogen load detected below the control wells (typically >2 cycle thresholds later) may be reported as Sensitive)
Escherichia coli [3]; E. coli isolate 3, Ct at control (average) 22.0995
  Ct at Sensitive Breakpoint: 30.605
Escherichia coli [3]; E. coli isolate 3, at sensitive breakpoint
  Molecular Antimicrobial Susceptibility Result: Sensitive (Antimicrobial wells with pathogen load detected below the control wells (typically >2 cycle thresholds later) may be reported as Sensitive)
Escherichia coli [3]; E. coli isolate 4, at sensitive breakpoint
  Molecular Antimicrobial Susceptibility Result: Resistant
Escherichia coli [3]; E. coli isolate 5, Ct at control (average) 21.0933
  Ct at Sensitive Breakpoint: 29.12
Escherichia coli [3]; E. coli isolate 5, at sensitive breakpoint
  Molecular Antimicrobial Susceptibility Result: Sensitive (Antimicrobial wells with pathogen load detected below the control wells (typically >2 cycle thresholds later) may be reported as Sensitive)
[4]; [5]
  Molecular Antibiotic Susceptibility Result: Sensitive (Antimicrobial wells with pathogen load detected below the control wells (typically >2 cycle thresholds later) may be reported as Sensitive)
[4]; E. coli, clinical sample of r10-r24, Ct control avg 12.97
  Ct: 24.066
[4]; [6]
  Molecular Antibiotic Susceptibility Result: Sensitive (Antimicrobial wells with pathogen load detected below the control wells (typically >2 cycle thresholds later) may be reported as Sensitive)
[4]; E. coli, clinical sample of r158-r172, Ct control avg 12.894
  Ct: 28.739
[4]; [7]
  Molecular Antibiotic Susceptibility Result: Sensitive (Antimicrobial wells with pathogen load detected below the control wells (typically >2 cycle thresholds later) may be reported as Sensitive)
[4]; K. aerogenes, clinical sample of r136-r150, Ct control avg 13.854
  Ct: 30.511
[4]; [8]
  Molecular Antibiotic Susceptibility Result: Sensitive (Antimicrobial wells with pathogen load detected below the control wells (typically >2 cycle thresholds later) may be reported as Sensitive)
[4]; K. pneumoniae, clinical sample of r121-r135, Ct control avg […]
  Ct: 29.719
[4]; [9]
  Molecular Antibiotic Susceptibility Result: Sensitive (Antimicrobial wells with pathogen load detected below the control wells (typically >2 cycle thresholds later) may be reported as Sensitive)
[4]; M. morganii, clinical sample of r55-r69, Ct control avg 12.09
  Ct: 22.916
[4]; [10]
  Molecular Antibiotic Susceptibility Result: Sensitive (Antimicrobial wells with pathogen load detected below the control wells (typically >2 cycle thresholds later) may be reported as Sensitive)
[4]; M. morganii, clinical sample of r70-r84, Ct control avg 11.677
  Ct: 22.281
[4]; [11]
  Molecular Antibiotic Susceptibility Result: Sensitive (Antimicrobial wells with pathogen load detected below the control wells (typically >2 cycle thresholds later) may be reported as Sensitive)
[4]; P. mirabilis, clinical sample of r25-r39, Ct control avg 11.801
  Ct: 23.476
[4]; [12]
  Molecular Antibiotic Susceptibility Result: Sensitive (Antimicrobial wells with pathogen load detected below the control wells (typically >2 cycle thresholds later) may be reported as Sensitive)
[4]; P. mirabilis, clinical sample of r40-r54, Ct control avg 10.06
  Ct: 25.628
[4]; [13]
  Molecular Antibiotic Susceptibility Result: Sensitive (Antimicrobial wells with pathogen load detected below the control wells (typically >2 cycle thresholds later) may be reported as Sensitive)
[4]; S. aureus, clinical sample of r85-r92, Ct control avg 20.309
  Ct: 28.965
